Like-named read-outs stand apart in the source and are kept apart here.
What was measured:
[1] = system: TLR2 induced IL-6 in peripheral blood mononuclear cells (PBMCs); assay: PBMC TLR2 Induced IL-6 Assay; assay type: cell-based, human; conditions: PBMC TLR2 Induced IL-6 Assay, lipoteichoic acid stimulation, IL-6 by ELISA; for EC50: read-out: Cell EC50; for IC50: read-out: Cell IC50
Method in brief: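 Lipoteichoic acid at 10 µg/ml served as TLR2 stimulus for 5 hours, following a 30-minute compound pretreatment at 37° C. Cells were Ficoll-isolated human PBMCs, 250000 cells/well, cultured in RPMI plus 10% heat-inactivated FCS.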

[2] = target: IRAK4 (Homo sapiens (Human), UniProt Q9NWZ3); assay: IRAK4 Inhibition Assay; assay type: biochemical; conditions: IRAK4 Inhibition Assay; ATP 500 μM; read-out: IRAK4 IC50
Sequence of IRAK4 (Q9NWZ3 whole entry, species assumed): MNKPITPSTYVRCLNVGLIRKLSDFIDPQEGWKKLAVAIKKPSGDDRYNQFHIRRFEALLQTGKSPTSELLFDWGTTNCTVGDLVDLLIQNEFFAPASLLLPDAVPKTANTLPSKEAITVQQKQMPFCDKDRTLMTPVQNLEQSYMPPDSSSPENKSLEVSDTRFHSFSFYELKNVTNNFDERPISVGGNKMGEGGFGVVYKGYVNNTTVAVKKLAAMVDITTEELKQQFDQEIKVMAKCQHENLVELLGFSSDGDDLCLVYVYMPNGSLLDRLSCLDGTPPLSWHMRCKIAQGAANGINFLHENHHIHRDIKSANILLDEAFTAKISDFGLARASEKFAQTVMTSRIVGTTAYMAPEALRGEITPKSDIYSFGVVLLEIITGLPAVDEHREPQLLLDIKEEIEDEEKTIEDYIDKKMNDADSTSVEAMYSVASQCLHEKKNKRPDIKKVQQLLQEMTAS
Method in brief: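 IRAK4 combined with fluorescent substrate and compounds, reacted 60 min at room temperature, stopped with 35 mM EDTA. Substrate and phosphorylated product separated electrophoretically on a Caliper LabChip 3000 mobility-shift reader.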

SMILES	IC50 [2] [nM]	EC50 ([1]; Homo sapiens, PBMC) [nM]	EC50 [1] [nM]	IC50 ([1]; Homo sapiens, PBMC) [nM]
CC(C)Nc1cc(-n2ncc3cnc(NC[C@@H](F)C(C)(C)O)nc32)ncc1C(=O)NC[C@@H](F)C(C)(C)O [Example 334]	18.5	460		
CC(C)Nc1cc(-n2ncc3cc(C#N)cnc32)ncc1C(=O)NC[C@@H](F)C(C)(C)O [Example 335]	3.3		77	
CC(C)(O)[C@H](F)CNC(=O)c1cnc(-n2ncc3cc(C#N)cnc32)cc1NC1CC1 [Example 336]	3.8		168	556
CC(C)(O)[C@H](F)CNC(=O)c1cnc(-n2cnc3cc(C#N)cnc32)cc1NC1CCC1 [Example 338]	4.5			147
CC(C)Nc1cc(-n2cnc3cc(Cl)cnc32)ncc1C(=O)NC[C@@H](F)C(C)(C)O [Example 339]	4			332
CC(C)(O)[C@H](F)CNC(=O)c1cnc(-n2cnc3cc(Cl)cnc32)cc1NC1COC1 [Example 340]	10	536		
CC(C)Nc1cc(-n2cnc3cc(C#N)c(N)nc32)ncc1C(=O)NC[C@@H](F)C(C)(C)O [Example 341]	1.9	161		
CC(C)Nc1cc(-n2cnc3cc(C#N)cnc32)ncc1C(=O)NC[C@@H](F)C(C)(C)F [Example 342]	8.7			423
CC1(Nc2cc(-n3cnc4cc(C#N)cnc43)ncc2C(=O)NC[C@@H](F)C(C)(C)O)CC1 [Example 343]	3.5			428
CC(C)(F)[C@H](F)CNC(=O)c1cnc(-n2cnc3cc(C#N)cnc32)cc1NC1COC1 [Example 344]	13.5			144
CC(C)(O)[C@H](F)CNC(=O)c1cnc(-n2cnc3cc(C#N)cnc32)cc1NC1CCOCC1 [Example 345]	7.4			180
CC(C)Nc1cc(-n2cnc3cnc(N)nc32)ncc1C(=O)NC[C@@H](F)C(C)(C)F [Example 346]	3.6			306
CC(C)(O)[C@H](F)CNC(=O)c1cnc(-n2ncc3cc(C#N)cnc32)cc1Nc1cnn(CC(F)F)c1 [Example 347, (R)-6-(5-Cyano-1H-pyrazolo[3,4-b]pyridin-1-yl)-4-((1-(2,2-difluoroethyl)-1H-pyrazol-4-yl)amino)-N-(2-fluoro-3-hydroxy-3-methylbutyl)nicotinamide]	1.3			146
CC(C)(O)[C@H](F)CNC(=O)c1cnc(-n2ncc3cc(C#N)cnc32)cc1Nc1cnn(C2COC2)c1 [Example 348]	1.8			489
CC(C)(O)[C@H](F)CNC(=O)c1cnc(-n2ncc3cc(C#N)cnc32)cc1Nc1cnn(C2CCOCC2)c1 [Example 349]	3.3			180
CC(C)(O)[C@H](F)CNC(=O)c1cnc(-n2ncc3cc(Cl)cnc32)cc1Nc1cnn(CC(F)F)c1 [Example 351]	2.3			27
CC(C)(O)[C@H](F)CNC(=O)c1cnc(-n2ncc3cc(Cl)cnc32)cc1Nc1cnn(C2CCOCC2)c1 [Example 352]	6.5			170
CC(C)(O)[C@H](F)CNC(=O)c1cnc(-n2ncc3cc(C#N)cnc32)cc1Nc1cnn(CC(F)(F)F)c1 [Example 353]	1.7			18
CC(C)(O)[C@H](F)CNC(=O)c1cnc(-n2ncc3cc(Cl)cnc32)cc1Nc1cnn(CC(F)(F)F)c1 [Example 354]	1.9			115
CCn1cc(Nc2cc(-n3ncc4cc(C#N)cnc43)ncc2C(=O)NC[C@@H](F)C(C)(C)O)cn1 [Example 355]	2.4			122
CC(C)(F)Cn1cc(Nc2cc(-n3ncc4cc(C#N)cnc43)ncc2C(=O)NC[C@@H](F)C(C)(C)O)cn1 [Example 356]	2.4			154
CCn1cc(Nc2cc(-n3ncc4cc(Cl)cnc43)ncc2C(=O)NC[C@@H](F)C(C)(C)O)cn1 [Example 357]	1.7			67
CC(C)n1cc(Nc2cc(-n3ncc4cc(Cl)cnc43)ncc2C(=O)NC[C@@H](F)C(C)(C)O)cn1 [Example 358]	3.5			257
CC(C)(O)[C@H](F)CNC(=O)c1cnc(-n2cnc3cc(Cl)cnc32)cc1Nc1cnn(CC(F)F)c1 [Example 359]	1.3			84
CC(C)(O)[C@H](F)CNC(=O)c1cnc(-n2cnc3cc(Cl)cnc32)cc1Nc1cnn(CC(F)(F)F)c1 [Example 360]	1.5			376

Further lines, with some results ahead:

IC50 [2] [nM]	SMILES	EC50 ([1]; Homo sapiens, PBMC) [nM]	EC50 [1] [nM]	IC50 ([1]; Homo sapiens, PBMC) [nM]
2.9	CCn1cc(Nc2cc(-n3cnc4cc(Cl)cnc43)ncc2C(=O)NC[C@@H](F)C(C)(C)O)cn1 [Example 361]			206
4.3	CC(C)n1cc(Nc2cc(-n3cnc4cc(Cl)cnc43)ncc2C(=O)NC[C@@H](F)C(C)(C)O)cn1 [Example 362]			486
3.2	COCCn1cc(Nc2cc(-n3ncc4cc(C#N)cnc43)ncc2C(=O)NC[C@@H](F)C(C)(C)O)cn1 [Example 363]			459
2.6	COCCn1cc(Nc2cc(-n3ncc4cc(Cl)cnc43)ncc2C(=O)NC[C@@H](F)C(C)(C)O)cn1 [Example 364]			83
1.7	CC(F)(F)Cn1cc(Nc2cc(-n3ncc4cc(C#N)cnc43)ncc2C(=O)NC[C@@H](F)C(C)(C)O)cn1 [Example 365]			66
7.9	COCCn1cc(Nc2cc(-n3cnc4cc(Cl)cnc43)ncc2C(=O)NC[C@@H](F)C(C)(C)O)cn1 [Example 366]			205
1.3	CC(C)(O)[C@H](F)CNC(=O)c1cnc(-n2ncc3cc(Cl)cnc32)cc1Nc1cnn(CCCF)c1 [Example 367]			41
2.4	CC(C)(O)[C@H](F)CNC(=O)c1cnc(-n2ncc3cc(C#N)cnc32)cc1Nc1cnn(CCCF)c1 [Example 368]			61
1.9	CC(F)(F)Cn1cc(Nc2cc(-n3ncc4cc(Cl)cnc43)ncc2C(=O)NC[C@@H](F)C(C)(C)O)cn1 [Example 369]			32
2.6	CC(C)(O)[C@H](F)CNC(=O)c1cnc(-n2cnc3cc(Cl)cnc32)cc1Nc1cnn(CCCF)c1 [Example 370]			84
2.1	CC(C)(O)[C@H](F)CNC(=O)c1cnc(-n2ccc3cc(C#N)cnc32)cc1Nc1cnn(CC(F)(F)F)c1 [Example 371]			45
1.2	CCn1cc(Nc2cc(-n3ccc4cc(C#N)cnc43)ncc2C(=O)NC[C@@H](F)C(C)(C)O)cn1 [Example 372]			2
2.4	CC(C)(O)[C@H](F)CNC(=O)c1cnc(-n2ccc3cc(C#N)cnc32)cc1Nc1cnn(C2CCOCC2)c1 [Example 373]			71
3.3	CC(C)(O)[C@H](F)CNC(=O)c1cnc(-n2cnc3cc(Cl)cnc32)cc1Nc1cnn(CCC#N)c1 [Example 374]			85
1.8	CC(C)(O)[C@H](F)CNC(=O)c1cnc(-n2cnc3cc(C#N)cnc32)cc1Nc1cnn(CC(F)F)c1 [Example 375]			156
2.1	CC(C)(O)[C@H](F)CNC(=O)c1cnc(-n2ncc3cc(C#N)cnc32)cc1Nc1cnn(CCC#N)c1 [Example 376]			349
2.7	CC(C)(O)[C@H](F)CNC(=O)c1cnc(-n2ncc3cc(Cl)cnc32)cc1Nc1cnn(CCC#N)c1 [Example 377]			440
2.9	CCCn1cc(Nc2cc(-n3ncc4cc(C#N)cnc43)ncc2C(=O)NC[C@@H](F)C(C)(C)O)cn1 [Example 380]			228
2.5	CCCn1cc(Nc2cc(-n3ncc4cc(Cl)cnc43)ncc2C(=O)NC[C@@H](F)C(C)(C)O)cn1 [Example 381]			41
2.5	CCCn1cc(Nc2cc(-n3cnc4cc(Cl)cnc43)ncc2C(=O)NC[C@@H](F)C(C)(C)O)cn1 [Example 382]			482
1.4	CCCn1cc(Nc2cc(-n3ccc4cc(C#N)cnc43)ncc2C(=O)NC[C@@H](F)C(C)(C)O)cn1 [Example 383]			113
2.3	CC(C)(O)[C@H](F)CNC(=O)c1cnc(-n2ncc3cc(F)cnc32)cc1Nc1cnn(CC(F)F)c1 [Example 384]			24
0.9	CC(C)(O)[C@H](F)CNC(=O)c1cnc(-n2ncc3cc(C#N)cnc32)cc1Nc1cnn(S(C)(=O)=O)c1 [Example 385]			40
1.5	CCNC(=O)n1cc(Nc2cc(-n3ncc4cc(C#N)cnc43)ncc2C(=O)NC[C@@H](F)C(C)(C)O)cn1 [Example 386]	79		1080
11.2	CC(C)NC(=O)c1cnc(-n2ncc3cc(C#N)cnc32)cc1Nc1cnn(CC(F)F)c1 [Example 388]			245
4	CCCNC(=O)c1cnc(-n2ncc3cc(C#N)cnc32)cc1Nc1cnn(CC(F)F)c1 [Example 389]			241
17	CC(C)(C)NC(=O)c1cnc(-n2ncc3cc(C#N)cnc32)cc1Nc1cnn(CC(F)F)c1 [Example 390]			199
6.2	CC(C)CNC(=O)c1cnc(-n2ncc3cc(C#N)cnc32)cc1Nc1cnn(CC(F)F)c1 [Example 391]			241
7.1	CCOCCNC(=O)c1cnc(-n2ncc3cc(C#N)cnc32)cc1Nc1cnn(CC(F)F)c1 [Example 392]			16
3.5	CCNC(=O)c1cnc(-n2ncc3cc(C#N)cnc32)cc1Nc1cnn(CC(F)F)c1 [Example 393]			250

Reference: US9169252B2 (BRISTOL-MYERS SQUIBB COMPANY, priority 2014, dated 2015)
